# From patent US20160349242A1, “PLATFORM TECHNOLOGIES FOR SPONTANEOUSLY OCCURRING DISEASES” (Oatmeal Biotechnologies Group, LLC, priority 2009, published 2016)
# Like-named read-outs stand apart in the source and are kept apart here. Square brackets hold non-standard residues; d marks the D form. Peptide text beside a SMILES is read from it. d(aIle) = CC[C@H](C)[C@@H](N)C(=O)O; Nva = CCC[C@H](N)C(=O)O; Sar = CNCC(=O)O
# Assays:
# high-grade osteosarcoma = conditions: added to doxorubicin, cisplatin and high-dose methotrexate; cited from earlier work
# canine osteosarcoma = conditions: non-metastatic dogs, cisplatin followed by L-MTP-PE or placebo; cited from earlier work
# [1] = system: soft tissue sarcoma (STS) or malignant histiocytosis (MH); conditions: dog, in vivo
# Procedure: Depletion of MSC is accomplished by i.v. administration of LC, which is prepared as described for treatment of dogs with malignant histiocytosis (34). The LC is administered once every 2 weeks by slow i.v. infusion over 60 minutes, at a dose of 0.5 ml/kg.
# [2] = system: spontaneous canine tumors; conditions: dog, in vivo; cited from earlier work
# tumor growth = conditions: mouse, in vivo; cited from earlier work
# first-relapse NHL = conditions: with lomustine vs lomustine and placebo; cited from earlier work
# cultured cells = conditions: cited from earlier work
# soft tissue sarcoma [3] = conditions: cited from earlier work
# [4] = system: canine soft tissue sarcoma; conditions: bleomycin and electric pulses; cited from earlier work
# soft tissue sarcoma [5] = conditions: intralesional, biphasic electric pulses; cited from earlier work
# canine MGT = conditions: dog, in vivo; cited from earlier work
# [6] = system: circulating neutrophil counts; conditions: immunosuppressive doses; cited from earlier work
# Canine TCC = conditions: dog, in vivo; cited from earlier work
# MSC = conditions: in vivo; cited from earlier work
# NHL = conditions: cited from earlier work
compound,measurement,setting,value
O=P1(NCCCl)OCCCN1CCCl (stereo not drawn) [ifosfamide],drug free survival (DFS),high-grade osteosarcoma,did not significantly improve
same,overall survival (OS),high-grade osteosarcoma,did not significantly improve
N.N.[Cl][Pt][Cl] [cisplatin],median survival time,canine osteosarcoma,9.8 months
liposomal clodronate [LC],tolerability,[1],well-tolerated
CCC[C@H](NC(=O)[C@@H](NC(=O)[C@H](NC(=O)[C@@H](NC(=O)CNC(=O)CN(C)C(C)=O)C(C)C)[C@@H](C)CC)[C@@H](C)O)C(=O)N[C@H](C(=O)N[C@@H](CCCNC(=N)N)C(=O)N1CCC[C@H]1C(=O)NCC)[C@@H](C)CC [ABT-526] (Ac-[Sar]GV[d(aIle)]T[Nva]IRP-NHEt),relative activity,[2],more active than ABT-510
same,tumor growth,tumor growth,slow tumor growth
same,duration of response,first-relapse NHL,modestly enhanced
same,number of cases responding to chemotherapy,first-relapse NHL,did not increase
bleomycin,internalized fraction,cultured cells,< 0.1%
same,average time of recurrence,soft tissue sarcoma [3]; intraoperative bleomycin with electrotherapy,12 months
same,average time of recurrence,soft tissue sarcoma [3]; postoperative bleomycin with electrotherapy,19 months
same,median time to recurrence,[4],730 days
same,response rate,[4],95%
same,long term remissions,soft tissue sarcoma [5],40%
same,overall response rate,soft tissue sarcoma [5],80%
CC/C(=C(\c1ccccc1)c1ccc(OCCN(C)C)cc1)c1ccccc1 [tamoxifen],anti-tumor activity,canine MGT,does not have demonstrable anti-tumor activity
C[C@]12C=CC(=O)C=C1CC[C@@H]1[C@@H]2C(=O)C[C@@]2(C)[C@H]1CC[C@]2(O)C(=O)CO [prednisone],time to rebound in circulating neutrophil counts,[6],48 to 72 h
CN1C(C(=O)Nc2ccccn2)=C(O)c2ccccc2S1(=O)=O [piroxicam],objective response rate,Canine TCC,18%
COc1cccc2c1C(=O)c1c(O)c3c(c(O)c1C2=O)C[C@@](O)(C(=O)CO)C[C@@H]3O[C@H]1C[C@H](N)[C@H](O)[C@H](C)O1 [doxorubicin],anti-tumor activity,canine MGT,a few partial responses
"CC1=C(/C=C/C(C)=C/C=C/C(C)=C/C(=O)O)C(C)(C)CCC1 [ATRA, all-trans retinoic acid]",spontaneous anti-tumor immunity,MSC,improved
same,vaccine responses,MSC,significantly enhanced
Cc1ncc(CO)c(CO)c1O [pyridoxine],"relative risk of developing PPES, placebo group versus pyridoxine",NHL; daily Doxil with oral pyridoxine or placebo,4.2 times
same,PPES symptoms,"NHL; dog, in vivo",delayed and lessened the symptoms
same,remission rates between treatment groups,"NHL; dog, in vivo",No difference
